{"source": "patent US9604973B2", "about": "“Anti-cancer polyketide compounds” (priority 2012, dated 2017)", "key": {"[1]": {"test": "Hydrolysis, NMR monitoring", "assay_type": "physicochemical", "conditions": "neutral conditions; 10 mM in D2O/DMSO-d6 (10:1) at 37° C.", "method": "FIG. 18A-18B: Hydrolysis of FD-895 (1a). FIG. 18A) NMR monitoring of the incubation of 10 mM 1a in D2O/DMSO-d6 (10:1) at 37° C. Hydrolysis occurs as marked by a shift of the C11 proton (large to small circles). Assignments of 3a, 3b and 3c were made based on coupling constant and gCOSY analyses. FIG. 18B) LdC-HRMS trace depicting the products at 143 h including acids 3a-3c (mass calcd. for C31H52O10Na=607.3453 m/z) along with unhydrolized 1a (mass calcd. for C31H50O9Na=589.3347 m/z). Exact masses [M+Na]^+ are provided for each peak.\nBased on this observation, we turned our efforts to apply conventional SAR techniques to identify analogs with improved stability."}, "[2]": {"tested_on": "HCT-116 cell line", "test": "MTT cell proliferation assay", "assay_type": "cell-based", "excerpt": "Structure Activity Relationships (SAR) studies for 1SS, […], 1RS, and […]. It has been reported that ablation of C3, C6 and C7 substituents is detrimental to activity. […] (See FIG. 4). Additional activity was also observed when C17 was left in its natural R configuration."}}}
{"smiles": "CCC(OC)C(C)C1OC1C(O)C(C)/C=C/C=C(\\C)C1OC(=O)CC(O)CCC(C)(O)C(OC(C)=O)/C=C/C1C", "note": "(stereo not shown) [FD-895]", "values": [{"measurement": "hydrolysis", "setting": "[1]", "value": "undergoes hydrolysis under neutral conditions"}, {"measurement": "IC50", "setting": "[2]; HCT-116 cell line, MTT", "value": "23.5 ± 0.2", "unit": "nM"}, {"measurement": "IC50", "setting": "[2]; HCT-116 cell line, MTT, listed as 1RR", "value": "24.2 ± 0.9", "unit": "nM"}, {"measurement": "IC50", "setting": "[2]; background statement, cell line not given", "value": "24.2 ± 0.9", "unit": "nM"}]}
